Measurements taken from patent US20230382904A1, “SUBSTITUTED 4-([1,2,4]TRIAZOLO[1,5-a]PYRIDIN-6-YL)THIOPHENE-2-CARBOXAMIDE DERIVATIVES AND USE THEREOF” (The Johns Hopkins University, priority 2020, published 2023).

How the values were obtained:
[1] = target: DLK (Homo sapiens (Human), UniProt Q12852); assay: DLK biochemical assay (TR-FRET, MKK7 phosphorylation)
Outline: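 TR-FRET ratio (665/Eu) reports MKK7 T275/S277 phosphorylation, lowered by DLK inhibition. Reaction: 60 μM ATP, 15 nM MKK7, 10 nM DLK catalytic domain, 90 min room temperature; detection incubation 16 h, 37° C. (1536-well) or 4° C. (384-well). Final concentrations.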

[2] = target: LZK (Homo sapiens (Human), UniProt O43283); assay: LZK biochemical assay (TR-FRET, MKK7 phosphorylation)
Outline: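 Readout is the HTRF ratio (XL665/Eu) from an EDTA-containing detection mix of 0.4 nM Eu-anti-phospho-MKK7 (T275/S277) and 20 nM XL665-anti-His, incubated 16 h at 32° C. This followed a 90 min RT reaction of 10 nM LZK catalytic domain, 15 nM MKK7 and 15 μM ATP at pH 7.5.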

DLK, sequence (Q12852 1-520): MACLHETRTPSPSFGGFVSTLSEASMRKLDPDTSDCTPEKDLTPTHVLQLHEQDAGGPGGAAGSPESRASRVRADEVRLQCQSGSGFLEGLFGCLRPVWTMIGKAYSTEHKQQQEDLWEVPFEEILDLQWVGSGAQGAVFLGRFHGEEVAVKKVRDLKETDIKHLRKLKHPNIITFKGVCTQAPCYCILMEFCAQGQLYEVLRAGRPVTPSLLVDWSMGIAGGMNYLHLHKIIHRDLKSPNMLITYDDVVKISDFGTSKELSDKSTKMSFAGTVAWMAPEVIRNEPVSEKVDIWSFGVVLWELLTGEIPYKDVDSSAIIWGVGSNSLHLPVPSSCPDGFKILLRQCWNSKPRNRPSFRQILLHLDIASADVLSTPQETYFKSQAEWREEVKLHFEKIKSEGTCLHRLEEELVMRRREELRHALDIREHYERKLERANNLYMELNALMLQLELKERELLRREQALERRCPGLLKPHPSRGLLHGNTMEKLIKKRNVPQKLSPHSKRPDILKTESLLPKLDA
LZK, sequence (O43283 168-409): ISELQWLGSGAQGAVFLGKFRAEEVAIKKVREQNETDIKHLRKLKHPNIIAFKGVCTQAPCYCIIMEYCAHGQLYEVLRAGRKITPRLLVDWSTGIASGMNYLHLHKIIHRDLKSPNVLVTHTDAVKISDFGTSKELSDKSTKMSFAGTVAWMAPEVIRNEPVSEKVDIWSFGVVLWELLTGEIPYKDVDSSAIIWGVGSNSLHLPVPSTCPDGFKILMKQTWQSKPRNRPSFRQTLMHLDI

| IC50 [1] [nM] | IC50 [2] [nM] | Structure (SMILES) |
| --- | --- | --- |
| 100 | 830 | CC(C)c1nnc(-c2cc(-c3csc(C(=O)N[C@@H](C)c4ccc(F)cc4)c3)cn3nc(N)nc23)s1 [Compound 392] |
| 410 | 2500 | CCc1nnc(-c2cc(-c3csc(C(=O)NCc4ccc(F)cc4)c3)cn3nc(N)nc23)s1 [Compound 394] |
| 1100 | 3600 | CCc1nnc(-c2cc(-c3csc(C(=O)NCc4ccc(F)cc4)c3)cn3nc(N)nc23)o1 [Compound 395] |
| 310 | 980 | CCc1nnc(-c2cc(-c3csc(C(=O)N[C@@H](C)c4ccc(F)cc4)c3)cn3nc(N)nc23)o1 [Compound 396] |
| 73 | 1100 | CCc1nnc(-c2cc(-c3csc(C(=O)N[C@@H](C)c4ccc(F)cc4)c3)cn3nc(N)nc23)s1 [Compound 397] |
| 880 | 3900 | CCC(C)c1nnc(-c2cc(-c3csc(C(=O)N[C@@H](CC)c4ccc(F)cc4)c3)cn3nc(N)nc23)s1 (some centres unmarked) [Compound 398] |
| 1760 | 3950 | CCC(C)c1nnc(-c2cc(-c3csc(C(=O)N[C@@H](C)c4ccc(F)cc4)c3)cn3nc(N)nc23)s1 (some centres unmarked) [Compound 399] |
| 2150 | 4350 | CCC(C)c1nnc(-c2cc(-c3csc(C(=O)NCc4ccc(F)cc4)c3)cn3nc(N)nc23)s1 (centres unmarked) [Compound 400] |
| 8.1 | 115 | CC[C@H](NC(=O)c1cc(-c2cc(-c3nnc([C@@H](C)CO)s3)c3nc(N)nn3c2)cs1)c1ccc(F)cc1 [Compound 401] |
| 69 | 1900 | CC[C@H](NC(=O)c1cc(-c2cc(-c3cnn(CC(F)(F)F)c3)n3nc(N)nc3c2)cs1)c1ccc(F)cc1 [Compound 402] |
| 140 | 5700 | CC[C@H](NC(=O)c1cc(-c2cc(-c3cnn(CC(F)(F)F)c3)c3nc(N)nn3c2)cs1)c1ccc(F)cc1 [Compound 403] |

Continued, molecule first:

| Structure (SMILES) | IC50 [1] [nM] | IC50 [2] [nM] |
| --- | --- | --- |
| Nc1nc2cc(-c3csc(C(=O)NCC4CCCCC4)c3)ccn2n1 [Compound 366] | 310 | > 30000 |
| CCOc1cccc(CNC(=O)c2cc(-c3ccn4nc(N)nc4c3)cs2)c1 [Compound 367] | 300 | 28000 |
| Cc1cccc(C)c1NC(=O)c1cc(-c2ccn3nc(N)nc3c2)cs1 [Compound 368] | 670 | 13000 |
| C[C@H](NC(=O)c1cc(-c2ccn3nc(N)nc3c2)cs1)c1ccc(F)cc1 [Compound 369] | 230 | 1900 |
| Nc1nc2cc(-c3csc(C(=O)NCc4ccc(F)cc4)c3)cc(C(=O)O)n2n1 [Compound 370] | 4400 | > 30000 |
| Cc1cc(-c2csc(C(=O)NCc3ccc(F)cc3)c2)cn2nc(N)nc12 [Compound 371] | 500 | 2300 |
| COc1cccc(CNC(=O)c2cc(-c3cc(C)c4nc(N)nn4c3)cs2)c1 [Compound 372] | 430 | 9200 |
| Cc1cc(-c2csc(C(=O)NCc3ccccc3)c2)cn2nc(N)nc12 [Compound 373] | 370 | 2800 |
| Cc1cc(-c2csc(C(=O)NC3CCCCC3)c2)cn2nc(N)nc12 [Compound 374] | 280 | 9300 |
| Nc1nc2c(C(F)(F)F)cc(-c3csc(C(=O)NCc4ccc(F)cc4)c3)cn2n1 [Compound 375] | 840 | 3300 |
| C[C@H](NC(=O)c1cc(-c2cc(C(F)(F)F)c3nc(N)nn3c2)cs1)c1ccccc1 [Compound 376] | 260 | 4900 |
| C[C@H](NC(=O)c1cc(-c2cc(C(F)(F)F)c3nc(N)nn3c2)cs1)c1ccc(F)cc1 [Compound 377] | 210 | 2400 |
| Nc1nc2c(C(F)(F)F)cc(-c3csc(C(=O)NCc4ccccc4)c3)cn2n1 [Compound 378] | 1800 | 9500 |
| Nc1nc2c(C(F)(F)F)cc(-c3csc(C(=O)NC4CCCCC4)c3)cn2n1 [Compound 379] | 970 | 20000 |
| COc1cccc(CNC(=O)c2cc(-c3cc(C(F)(F)F)c4nc(N)nn4c3)cs2)c1 [Compound 380] | 1100 | > 30000 |
| COc1cccc(CNC(=O)c2cc(-c3cc(F)c4nc(N)nn4c3)cs2)c1 [Compound 381] | 380 | > 30000 |
| Nc1nc2c(F)cc(-c3csc(C(=O)NCc4ccc(F)cc4)c3)cn2n1 [Compound 382] | 310 | > 30000 |
| C[C@H](NC(=O)c1cc(-c2cc(F)c3nc(N)nn3c2)cs1)c1ccc(F)cc1 [Compound 383] | > 30000 | > 30000 |
| CC(C)NS(=O)(=O)c1cc(-c2csc(C(=O)N[C@@H](C)c3ccc(F)cc3)c2)cn2nc(N)nc12 [Compound 384] | > 30000 | > 30000 |
| CCNS(=O)(=O)c1cc(-c2csc(C(=O)N[C@@H](C)c3ccc(F)cc3)c2)cn2nc(N)nc12 [Compound 385] | 11000 | > 30000 |
| CNS(=O)(=O)c1cc(-c2csc(C(=O)N[C@@H](C)c3ccc(F)cc3)c2)cn2nc(N)nc12 [Compound 386] | 3400 | > 30000 |
| COCc1cc(-c2csc(C(=O)NCc3ccc(F)cc3)c2)cn2nc(N)nc12 [Compound 387] | 750 | 2800 |
| COCc1cc(-c2csc(C(=O)N[C@@H](C)c3ccc(F)cc3)c2)cn2nc(N)nc12 [Compound 388] | 210 | 1200 |
